The numbers were not newly measured in US9669048B2, “Stable pharmaceutical composition of 5-aza-2′-deoxycitidine” (Fresenius Kabi Oncology Limited, priority 2012, dated 2017), which cites them from elsewhere.

The structures appear in SMILES notation.

For this series the following is noted: reconstituted/diluted solution.

For the compound `Nc1ncn([C@H]2CC(O)[C@@H](CO)O2)c(=O)n1` (stereo partly shown) [Decitabine, 5-aza-2′-deoxycitidine], the “Stability in aqueous media” value is given as “highly unstable”.
